Measurements published in US10695299B2, “Disulfiram formulation” (UNIVERSITY OF WOLVERHAMPTON, priority 2015, dated 2020).
pIC50: −log10 of the molar value. Blank lines part the entries; values can stand above or below the molecule they belong to.

Legend:
[1] = system: PLC/PRF/5 xenografts; experiment: Liver cancer xenograft experiments; type: in vivo, BALB/c Nu/Nu athymic nude mice; conditions: copper alone (CuGlu 6 mg/kg p.o.)
Procedure: PLC/PRF/5 cells (5×10^5) were subcutaneously injected at one front flank of the mice. When the tumor volume reached ˜200 mm^3, the tumor bearing mice were randomly subdivided into 6 groups (8 mice/group) e.g. control, CuGlu 6 mg/kg p.o., empty nanoparticles+CuGlu 6 mg/kg p.o., PLGA-disulfiram 2.5 mg/kg i.v.+CuGlu 6 mg/kg p.o., PLGA-disulfiram 5 mg/kg i.v.+CuGlu 6 mg/kg p.o., PLGA-disulfiram 10 mg/kg i.v.+CuGlu 6 mg/kg p.o. The drugs were administered 3 times/week for successive 3 weeks.
Five-week-old female BALB/c Nu/Nu athymic nude mice (Biotechology & Cell Biology Shanghai, China) were housed under pathogen-free conditions. PLC/PRF/5 cells (5×10^5) were subcutaneously injected at one front flank of the mice. When the tumour volume (V) reached ˜200 mm^3, the tumour bearing mice were randomly subdivided into 6 groups (8 mice/group) and treated 3 times/week e.g. control; copper gluconate (CuGlu) 6 mg/kg p.o., empty nanoparticles+CuGlu 6 mg/kg p.o., PLGA-disulfiram 2.5 mg/kg i.v.+CuGlu 6 mg/kg p.o.; PLGA-disulfiram 5 mg/kg i.v.+CuGlu 6 mg/kg p.o., PLGA-disulfiram 10 mg/kg i.v.+CuGlu 6 mg/kg p.o. The tumour volume was calculated by the following formula: V=(L×W^2)×0.5, where L is the length and W is the width of the tumour. The xenograft size was observed and recorded trice per week for 3 weeks. The animals were sacrificed after three weeks. […]

[2] = system: a wide range of cancer types; conditions: read-out: IC50s of disulfiram; cited from earlier work
[3] = cited from earlier work
[4] = type: in vitro ADME; conditions: horse, 100 μg/ml
Procedure: The eppendoff tubes were collected and protein was precipitated by the addition of 300 μl of absolute methanol at different time intervals. The supernatant was then subjected to HPLC measurement.
The free disulfiram was rapidly degraded in the serum to undetectable levels within 30 seconds (FIG. 1E). In contrast, disulfiram commenced its release from PLGA nanoparticles at 2 min which was equivalent to 34.23±3.38% of the initial drug loading and peaked in 4 min at 51.27±5.98% of the initial drug loading. The controlled release lasted for at least 24 hours. […] Importantly, after 4 hours incubation, the disulfiram concentration in the serum still remained at ˜90 μM which is markedly higher than the IC50s of disulfiram in a wide range of cancer types (˜50-500 nM).

[5] = system: PLC/PRF/5 cells; experiment: Clonogenic assay, PLC/PRF/5; type: cell-based; conditions: 6 h exposure, 10 days culture, 5-FU 200 μM, Sorafenib 20 μM, CuCl2 1 μM, disulfiram-PLGA 200 nM
Procedure: (§1) […] The cells were collected and sub-cultured in 6-well plates containing drug-free medium at a cell density of 10^3/well. After 10 days culture, the clonogenic cells were determined by counting the colonies containing at least 50 cells.
(§2) The treated cells were collected and sub-cultured in 6-well plates containing drug-free medium at a cell density of 500 cells/well for another 10 days.

[6] = system: Huh7 cells; experiment: Clonogenic assay, Huh7; type: cell-based; conditions: 6 h exposure, 10 days culture, 5-FU 200 μM, Sorafenib 20 μM, CuCl2 1 μM, disulfiram-PLGA 200 nM
Procedure: as §1, §2

[7] = system: PLC/PRF/5 HCC cell line; experiment: MTT cytotoxicity assay and CI-isobologram, PLC/PRF/5; type: cell-based; conditions: for pIC50: Homo sapiens, PLC/PRF/5, 72 h, single drug; for combinational effect with Disulfiram-PLGA (CI-isobologram): PLC/PRF/5, Cu 1 μM; for sensitivity of cells at hypoxic condition: PLC/PRF/5, hypoxic versus normoxic culture, 72 h
Procedure: (§3) The PLC/PRF/5 and Huh7 HCC cell lines were cultured in DMEM (Lonza, Wokingham, UK) supplemented with 10% FCS, 50 units/ml penicillin, 50 μg/ml streptomycin.
(§4) The IC50s from single and two-drug-treated cells were detected. […] The combination index (CI) was determined by mutually exclusive equations.

[8] = system: Huh7 HCC cell line; experiment: MTT cytotoxicity assay and CI-isobologram, Huh7; type: cell-based; conditions: for pIC50: Homo sapiens, Huh-7, Huh7, 72 h, single drug; for combinational effect with Disulfiram-PLGA (CI-isobologram): Huh7, Cu 1 μM; for sensitivity of cells at hypoxic condition: Huh7, hypoxic versus normoxic culture, 72 h
Procedure: as §3, §4

Molecule: copper gluconate
effect on tumor growth [1]: no effect

time to degradation to undetectable levels in serum [4]: ≤ 30 s
Molecule: CCN(CC)C(=S)SSC(=S)N(CC)CC [free disulfiram, Disulfiram]
pIC50 [2]: 6.30 to 7.30
previously published half-life data [3]: 4 min

Molecule: [Cl][Cu][Cl] [CuCl2, copper(II) chloride]
colony numbers versus control [5]: no significant difference
colony numbers versus control [6]: no significant difference

Molecule: O=c1[nH]cc(F)c(=O)[nH]1 [5-FU, 5-fluorouracil]
colony numbers versus control [5]: no significant difference
pIC50 [7]: 3.91
combinational effect with Disulfiram-PLGA (CI-isobologram) [7]: very significant synergistic
sensitivity of cells at hypoxic condition [7]: significantly resistant
pIC50 [8]: 3.99
combinational effect with Disulfiram-PLGA (CI-isobologram) [8]: very significant synergistic
sensitivity of cells at hypoxic condition [8]: significantly resistant
colony numbers versus control [6]: no significant difference

Molecule: CNC(=O)c1cc(Oc2ccc(NC(=O)Nc3ccc(Cl)c(C(F)(F)F)c3)cc2)ccn1 [Sorafenib]
colony numbers versus control [5]: no significant difference
pIC50 [7]: 4.51
combinational effect with Disulfiram-PLGA (CI-isobologram) [7]: very significant synergistic
sensitivity of cells at hypoxic condition [7]: significantly resistant
pIC50 [8]: 4.64
combinational effect with Disulfiram-PLGA (CI-isobologram) [8]: very significant synergistic
sensitivity of cells at hypoxic condition [8]: significantly resistant
colony numbers versus control [6]: no significant difference
